Test results taken from patent US20260042755A1, “GPR6 INVERSE AGONISTS” (MapLight Therapeutics, Inc., priority 2022, published 2026).

How the values were obtained:
GPR6 = biological target: T1, GPR6 (Homo sapiens, UniProt P46095); test: GPR6 antagonist functional cAMP assay (LANCE Ultra cAMP TR-FRET, CHO cells stably expressing GPR6); type: cell-based
T1 construct: expressed in transfected cells; host or cells: CHO cells
Method in brief: (§1)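 Suspended cells were plated at 10,000 per well in Krebs-Ringer bicarbonate buffer containing 0.1% BSA and 150 μM Ro 20-1724, then treated with compounds for 45 min at 37 °C. Intracellular cAMP was then quantified by TR-FRET immunoassay.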

GPR3 = biological target: T2, GPR3 (Homo sapiens, UniProt P46089); test: GPR3 antagonist functional cAMP assay (LANCE Ultra cAMP TR-FRET, CHO cells stably expressing GPR3); type: cell-based
T2 construct: expressed in transfected cells; host or cells: CHO cells
T2 sequence (P46089 whole entry, species assumed): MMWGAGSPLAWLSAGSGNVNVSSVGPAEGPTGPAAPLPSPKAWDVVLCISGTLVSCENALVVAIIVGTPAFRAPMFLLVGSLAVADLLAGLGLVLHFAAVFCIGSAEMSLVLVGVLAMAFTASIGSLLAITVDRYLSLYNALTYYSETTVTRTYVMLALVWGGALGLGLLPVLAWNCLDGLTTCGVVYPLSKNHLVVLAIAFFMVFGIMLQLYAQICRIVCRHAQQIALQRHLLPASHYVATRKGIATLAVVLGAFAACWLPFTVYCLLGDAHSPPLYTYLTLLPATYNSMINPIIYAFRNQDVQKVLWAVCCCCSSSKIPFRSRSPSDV
Method in brief: as §1

[1] = CHO cells stably expressing GPR6, cAMP assay
[2] = CHO cells stably expressing GPR3, cAMP assay
[3] = CHO cells stably expressing GPR6, cAMP assay (Example 24)
[4] = CHO cells stably expressing GPR3, cAMP assay (Example 24)

T1 sequence (P46095 whole entry): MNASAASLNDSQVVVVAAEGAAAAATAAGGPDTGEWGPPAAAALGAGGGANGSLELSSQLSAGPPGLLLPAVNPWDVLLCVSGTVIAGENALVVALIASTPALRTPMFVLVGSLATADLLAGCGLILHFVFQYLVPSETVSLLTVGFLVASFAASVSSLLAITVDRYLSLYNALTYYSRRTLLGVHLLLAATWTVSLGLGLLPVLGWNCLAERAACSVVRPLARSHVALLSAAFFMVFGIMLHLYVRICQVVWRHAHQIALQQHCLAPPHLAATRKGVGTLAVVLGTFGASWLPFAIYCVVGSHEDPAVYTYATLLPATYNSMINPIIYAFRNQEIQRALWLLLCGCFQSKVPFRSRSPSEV

| Structure (SMILES) | IC50 (GPR6; procedure of Example 24) [nM] | IC50 (GPR3; procedure of Example 24) [nM] | IC50 (GPR6; [3]) [nM] | IC50 (GPR3; [4]) [nM] | further results |
| --- | --- | --- | --- | --- | --- |
| CC(C)(O)C(O)c1cc2nc(-c3cnn(C4CC4)c3)c(N3CCN(Cc4ccc(F)cc4F)CC3)nc2cn1 (single isomer, unassigned) [Compound 601] |  |  |  |  | IC50 (GPR6; [1]): 100 to 1000 nM; IC50 (GPR3; [2]): 1000 to 30000 nM |
| CC(C)(O)[C@](C)(O)c1cc2nc(N3CCN(Cc4ccccc4F)CC3)c(-c3cnn(CF)c3)nc2cn1 (single isomer, unassigned) [Compound 675] | 100 to 1000 | 1000 to 30000 |  |  |  |
| CC(=O)N1CCc2nc(N3CCN(Cc4cc(Cl)ccc4F)CC3)c(-c3cnn(C)c3)nc2C1 [Compound 349, 1-(2-{4-[(5-chloro-2-fluorophenyl)methyl]piperazin-1-yl}-3-(1-methyl-1H-pyrazol-4-yl)-5H,6H,7H,8H-pyrido[3,4-b]pyrazin-6-yl)ethan-1-one] | < 100 | 1000 to 30000 |  |  |  |
| CC(=O)N1CCc2nc(N3CCN(Cc4cccnc4)CC3)c(-c3cnn(C)c3)nc2C1 [Compound 517, 1-[3-(1-methyl-4-pyrazolyl)-2-{4-[(3-pyridyl)methyl]-1-piperazinyl}-5,6,7,8-tetrahydro-1,4,6-triaza-6-naphthyl]-1-ethanone] |  |  |  |  | IC50 (GPR6; [1]): ≥ 30000 nM; IC50 (GPR3; [2]): ≥ 30000 nM |
| CC(=O)N1CCc2nc(N3CCN(Cc4ccc(F)cc4)CC3)c(-c3cnn(C)c3)nc2C1 [Compound 257, 1-(2-{4-[(4-fluorophenyl)methyl]piperazin-1-yl}-3-(1-methyl-1H-pyrazol-4-yl)-5H,6H,7H,8H-pyrido[3,4-b]pyrazin-6-yl)ethan-1-one] |  |  | 1000 to 30000 | 1000 to 30000 |  |
| CC(=O)N1CCc2nc(N3CCC(C(=O)NCc4ccc(F)cc4F)C3)c(-c3cnn(C)c3)nc2C1 (centres unmarked) [Compound 386, 1-[6-acetyl-3-(1-methyl-1H-pyrazol-4-yl)-5H,6H,7H,8H-pyrido[3,4-b]pyrazin-2-yl]-N-[(2,4-difluorophenyl)methyl] pyrrolidine-3-carboxamide] |  |  | ≥ 30000 | 1000 to 30000 |  |
| CC(=O)N1CCc2nc(N3CCC(Oc4ccc(C(F)(F)F)cc4F)CC3)c(-c3cnn(C)c3)nc2C1 [Compound 501, 1-(2-{4-[2-fluoro-4-(trifluoromethyl)phenoxy]-1-piperidyl}-3-(1-methyl-4-pyrazolyl)-5,6,7,8-tetrahydro-1,4,6-triaza-6-naphthyl)-1-ethanone] |  |  |  |  | IC50 (GPR6; [1]): 100 to 1000 nM; IC50 (GPR3; [2]): 100 to 1000 nM |

Further lines, with some results ahead:

| IC50 (GPR6; procedure of Example 24) [nM] | IC50 (GPR3; procedure of Example 24) [nM] | IC50 (GPR6; [3]) [nM] | IC50 (GPR3; [4]) [nM] | Structure (SMILES) | further results |
| --- | --- | --- | --- | --- | --- |
| ≥ 30000 | 100 to 1000 |  |  | CC(=O)N1CCc2nc(N3CCCC(Oc4ccccc4F)C3)c(-c3cnn(C)c3)nc2C1 (centres unmarked) [Compound 336, 1-{2-[3-(2-fluorophenoxy)piperidin-1-yl]-3-(1-methyl-1H-pyrazol-4-yl)-5H,6H,7H,8H-pyrido[3,4-b]pyrazin-6-yl}ethan-1-one] |  |
|  |  | 100 to 1000 | 1000 to 30000 | COCCn1cc(-c2nc3c(nc2N2CCC(Oc4ccc(F)cc4F)CC2)CCN(C(C)=O)C3)cn1 [Compound 74, 1-{2-[4-(2,4-difluorophenoxy)piperidin-1-yl]-3-[1-(2-methoxyethyl)-1H-pyrazol-4-yl]-5H,6H,7H,8H-pyrido[3,4-b]pyrazin-6-yl}ethan-1-one] |  |
|  |  | < 100 | 1000 to 30000 | CC(C)(O)[C@@H](O)c1cc2nc(N3CCN(Cc4ccc(F)cc4F)CC3)c(-c3cnn(C(F)F)c3)nc2cn1 (single isomer, unassigned) [Compound 397] |  |
| 100 to 1000 | 1000 to 30000 |  |  | Cn1cc(-c2nc3cc([C@@](C)(O)C(C)(C)O)ncc3nc2N2CCC(Oc3ccc(F)cc3F)CC2)cn1 (single isomer, unassigned) [Compound 739] |  |
| < 100 | 100 to 1000 |  |  | COC[C@H](O)c1cc2nc(-c3cnn(C)c3)c(N3CCC(Oc4ccc(F)cc4F)CC3)nc2cn1 (single isomer, unassigned) [Compound 681] |  |
| < 100 | 1000 to 30000 |  |  | COc1nc(-c2nc3c(nc2N2CCC(Oc4ccc(F)cc4F)CC2)CCN(C(C)=O)C3)cnc1Cl [Compound 308] |  |
